In this test the target is MCH receptor (Homo sapiens, UniProt Q99705). Description: High throughput functional screening FLIPR/FDSS6000: inhibition of MCH-evoked intracellular Ca2+ changes. The format is cell-based. Conditions: class by percent of control at 10^-7 M or IC50. An outline of the steps: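 Antagonism was measured as inhibition of calcium responses to 50 nM MCH, monitored 290 s at ex 488/em 530 nm on FLIPR or FDSS6000. Beforehand, cells bearing a constitutively active MCH receptor received Fluo4-AM (4 μM, 1 h, 37 °C) with probenecid, and test compound for 3 min.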

Consider `CCOC(=O)c1ccc(NC(=S)N[C@H]2CC[C@@H](Nc3nc(N(C)C)c4ccccc4n3)CC2)cc1` [compound 272], for which the class was 3 (Class 3: The value of percent of control at 10^−7 M was more than 60% or the value of IC50 was more than 200 nM.).

On to `CN(C)c1nc(N[C@H]2CC[C@@H](NC(=S)NCc3ccc(F)cc3)CC2)nc2ccccc12` [compound 274, N-(cis-4-{[4-(dimethylamino)quinazolin-2-yl]amino}cyclohexyl)-N′-(4-fluorobenzyl)thiourea], for which the class is 2 (Class 2: The value of percent of control at 10^−7 M was from 40% to 60% or the value of IC50 was from 50 nM to 200 nM.).

For `CC(C)c1ccc(NC(=S)N[C@H]2CC[C@@H](Nc3nc(N(C)C)c4ccccc4n3)CC2)cc1` [compound 275, N-(cis-4-{[4-(dimethylamino)quinazolin-2-yl]amino}cyclohexyl)-N′-(4-isopropylphenyl)thiourea], the class is 2 (Class 2: The value of percent of control at 10^−7 M was from 40% to 60% or the value of IC50 was from 50 nM to 200 nM.).

`COc1ccc(NC(=S)N[C@H]2CC[C@@H](Nc3nc(N(C)C)c4ccccc4n3)CC2)c([N+](=O)[O-])c1` [compound 276]: the class is 3 (Class 3: The value of percent of control at 10^−7 M was more than 60% or the value of IC50 was more than 200 nM.).

As to `COc1ccc(CNC(=S)N[C@H]2CC[C@@H](Nc3nc(N(C)C)c4ccccc4n3)CC2)cc1` [compound 277, N-(cis-4-{[4-(dimethylamino)quinazolin-2-yl]amino}cyclohexyl)-N′-(4-methoxybenzyl)thiourea], the class is 2 (Class 2: The value of percent of control at 10^−7 M was from 40% to 60% or the value of IC50 was from 50 nM to 200 nM.).

For `COC(=O)c1ccc(NC(=S)N[C@H]2CC[C@@H](Nc3nc(N(C)C)c4ccccc4n3)CC2)cc1` [compound 278], the class was 2 (Class 2: The value of percent of control at 10^−7 M was from 40% to 60% or the value of IC50 was from 50 nM to 200 nM.).

For `Cc1ccc(NC(=S)N[C@H]2CC[C@@H](Nc3nc(N(C)C)c4ccccc4n3)CC2)c([N+](=O)[O-])c1` [compound 279], the class is on record as 3 (Class 3: The value of percent of control at 10^−7 M was more than 60% or the value of IC50 was more than 200 nM.).

In the case of `Cc1ccc(CNC(=S)N[C@H]2CC[C@@H](Nc3nc(N(C)C)c4ccccc4n3)CC2)cc1` [compound 280], the class is recorded as 3 (Class 3: The value of percent of control at 10^−7 M was more than 60% or the value of IC50 was more than 200 nM.).

Consider `CCCCc1ccc(NC(=S)N[C@H]2CC[C@@H](Nc3nc(N(C)C)c4ccccc4n3)CC2)cc1` [compound 281], for which the class is 3 (Class 3: The value of percent of control at 10^−7 M was more than 60% or the value of IC50 was more than 200 nM.).

Take `COc1ccc(Cl)cc1NC(=S)N[C@H]1CC[C@@H](Nc2nc(N(C)C)c3ccccc3n2)CC1` [compound 282]: the class was 3 (Class 3: The value of percent of control at 10^−7 M was more than 60% or the value of IC50 was more than 200 nM.).

Turning to `CN(C)c1nc(N[C@H]2CC[C@@H](NC(=S)NC(c3ccccc3)c3ccccc3)CC2)nc2ccccc12` [compound 284, N-(cis-4-{[4-(dimethylamino)quinazolin-2-yl]amino}cyclohexyl)-N′-(diphenylmethyl)thiourea], the class is reported as 2 (Class 2: The value of percent of control at 10^−7 M was from 40% to 60% or the value of IC50 was from 50 nM to 200 nM.).

`CN(C)c1nc(N[C@H]2CC[C@@H](NC(=S)NC3CCCCCCCCCCC3)CC2)nc2ccccc12` [compound 285]: the class is 3 (Class 3: The value of percent of control at 10^−7 M was more than 60% or the value of IC50 was more than 200 nM.).

As for `CN(C)c1nc(N[C@H]2CC[C@@H](NC(=S)NCC3CCCCC3)CC2)nc2ccccc12` [compound 286, N-(cyclohexylmethyl)-N′-(cis-4-{[4-(dimethylamino)quinazolin-2-yl]amino}cyclohexyl)thiourea], the class is given as 2 (Class 2: The value of percent of control at 10^−7 M was from 40% to 60% or the value of IC50 was from 50 nM to 200 nM.).

On to `CN(C)c1nc(N[C@H]2CC[C@@H](NC(=S)NC3CCCCCCC3)CC2)nc2ccccc12` [compound 287, N-cyclooctyl-N′-(cis-4-{[4-(dimethylamino)quinazolin-2-yl]amino}cyclohexyl)thiourea], for which the class is reported as 2 (Class 2: The value of percent of control at 10^−7 M was from 40% to 60% or the value of IC50 was from 50 nM to 200 nM.).

Turning to `CN(C)c1nc(N[C@H]2CC[C@@H](NC(=S)NC3CC3)CC2)nc2ccccc12` [compound 288, N-cyclopropyl-N′-(cis-4-{[4-(dimethylamino)quinazolin-2-yl]amino}cyclohexyl)thiourea], the class is 2 (Class 2: The value of percent of control at 10^−7 M was from 40% to 60% or the value of IC50 was from 50 nM to 200 nM.).

As for `CN(C)c1nc(N[C@H]2CC[C@@H](NC(=S)NCc3cccc4ccccc34)CC2)nc2ccccc12` [compound 289, N-(cis-4-{[4-(dimethylamino)quinazolin-2-yl]amino}cyclohexyl)-N′-(1-naphthylmethyl)thiourea], the class is listed as 1 (Class 1: The value of percent of control at 10^−7 M was less than 40% or the value of IC50 was less than 50 nM.).

Take `CN(C)c1nc(N[C@H]2CC[C@@H](NC(=S)NCC(c3ccccc3)c3ccccc3)CC2)nc2ccccc12` [compound 290, N-(cis-4-{[4-(dimethylamino)quinazolin-2-yl]amino}cyclohexyl)-N′-(2,2-diphenylethyl)thiourea]: the class is given as 2 (Class 2: The value of percent of control at 10^−7 M was from 40% to 60% or the value of IC50 was from 50 nM to 200 nM.).

In the case of `CN(C)c1nc(N[C@H]2CC[C@@H](NC(=S)Nc3c(Cl)c(Cl)cc(Cl)c3Cl)CC2)nc2ccccc12` [compound 291], the class was 3 (Class 3: The value of percent of control at 10^−7 M was more than 60% or the value of IC50 was more than 200 nM.).

With `COc1cccc(CNC(=S)N[C@H]2CC[C@@H](Nc3nc(N(C)C)c4ccccc4n3)CC2)c1OC` [compound 292, N-(2,3-dimethoxybenzyl)-N′-(cis-4-{[4-(dimethylamino)quinazolin-2-yl]amino}cyclohexyl)thiourea], the class is 1 (Class 1: The value of percent of control at 10^−7 M was less than 40% or the value of IC50 was less than 50 nM.).

Take `Cc1cc(C)c(NC(=S)N[C@H]2CC[C@@H](Nc3nc(N(C)C)c4ccccc4n3)CC2)cc1C` [compound 293, N-(cis-4-{[4-(dimethylamino)quinazolin-2-yl]amino}cyclohexyl)-N′-(2,4,5-trimethylphenyl)thiourea]: the class is reported as 1 (Class 1: The value of percent of control at 10^−7 M was less than 40% or the value of IC50 was less than 50 nM.).

In the case of `CN(C)c1nc(N[C@H]2CC[C@@H](NC(=S)NCc3ccc(Cl)cc3Cl)CC2)nc2ccccc12` [compound 294], the class was 3 (Class 3: The value of percent of control at 10^−7 M was more than 60% or the value of IC50 was more than 200 nM.).

For `CN(C)c1nc(N[C@H]2CC[C@@H](NC(=S)Nc3cc(Br)ccc3Br)CC2)nc2ccccc12` [compound 295], the class is recorded as 3 (Class 3: The value of percent of control at 10^−7 M was more than 60% or the value of IC50 was more than 200 nM.).
